These results are taken from patent US6849664B2, “Process for disposing biocide-containing cooling water” (priority 2001, dated 2005).

The subject of one data set is bacteria. The experiment in a line: Neutralization of glutaraldehyde with H2O2 and NH4Cl, microbial growth test. The data set is classed as cell-based. The procedure:
[…]. In this experiment, minimal medium, containing 1, 10 or 100 ppm of glutaraldehyde, were mixed with a five times molar excess of H2O2 or NH4Cl. Hydrocarbonaceous product and bacteria were then added to the mixture. While microbial growth was observed after 5 days in control samples containing no glutaraldehyde, no growth was observed after 14 days in samples containing glutaraldehyde and H2O2 or NH4Cl. […].

The test system of data set [1] is bacterial inoculum. The experiment in a line: Neutralization of biocides with MEA, microbial growth in minimal media / Fischer-Tropsch diesel fuel. It is filed as cell-based. As for the experimental part:
Growth Media: A standard minimal media containing only inorganic nutrients required for bacterial growth was used. The medium used to supply inorganic micronutrients to the growing culture of alkane degrading organisms consists of 0.1 g/L MgSO4.7H2O, 0.5 g/L NaNO3, 0.02 mM FeSO4 and 0.63 g/L K2HPO4 and 0.19 g/L KH2PO4 to achieve a pH of 7 to 7.3.
Test Conditions: 90 ml of media and 10 ml of the product to be tested (n-C16) were added to 250 ml flasks. […] After inoculation, the flasks were placed on a shaker-table (135 rpm) at room temperature in contact with air and observed daily.
In all experiments, a 10:1 ratio of minimal media to Fischer-Tropsch diesel fuel were prepared and evaluated in 250 ml flasks.

The subject of data set [2] is Larval Sheepshead Minnow (Cyprinodon variegatus). The conditions noted are these: in vivo, 96 h. The procedure:
[…]. EPA/600/4-90/027F Washington, D.C.) conducted at Pacific Eco-Risk Laboratories, Martinez, Calif.
LOEC is the Lowest Observable Effect Concentration and is defined as the minimum concentration where mortality is observed for the test species. […] LC-50, the concentration that will cause mortality of 50% of the organisms tested within 96 h, is a calculated value based on all observations.

Data set [3] deals with bacterial inoculum. The conditions noted are these: for neutralizing 10 ppm of glutaraldehyde: two moles of nitrogen-containing compound to glutaraldehyde. The procedure:
A series of different nitrogen-containing compounds were evaluated as materials to neutralize glutaraldehyde. For these experiments, 10:1 ratio of minimal media to n-C16 were prepared, mixed with 10 ppm of glutaraldehyde (G) and evaluated in 250 ml flasks.
Two moles of each of the nitrogen-containing compound to glutaraldehyde were added to the flasks. Then 10 μl of the bacterial inoculum was added to each flask.
Control samples were also run with the nitrogen-containing compound and without the glutaraldehyde. These control samples permitted an assessment of the toxicity of the nitrogen-containing compound.

[4] abbreviates: 10 ppm glutaraldehyde with two moles of the nitrogen-containing compound to glutaraldehyde, time 0 days.
The mark [5] stands for this setting: 10 ppm glutaraldehyde with two moles of the nitrogen-containing compound to glutaraldehyde, time 1 days.
Setting [6] is: 10 ppm glutaraldehyde with two moles of the nitrogen-containing compound to glutaraldehyde, time 2 days.
Where [7] appears, read: 10 ppm glutaraldehyde with two moles of the nitrogen-containing compound to glutaraldehyde, time 6 days.
[8] abbreviates: 10 ppm glutaraldehyde with two moles of the nitrogen-containing compound to glutaraldehyde, time 7 days.
The mark [9] stands for this setting: 10 ppm glutaraldehyde with two moles of the nitrogen-containing compound to glutaraldehyde, time 9 days.
Where [10] appears, read: 10 ppm glutaraldehyde with two moles of the nitrogen-containing compound to glutaraldehyde, time 13 days.
Setting [11] is: 10 ppm glutaraldehyde with two moles of the nitrogen-containing compound to glutaraldehyde, time 20 days.
Where [12] appears, read: control: nitrogen-containing compound without the glutaraldehyde, time 0 days.
Where [13] appears, read: control: nitrogen-containing compound without the glutaraldehyde, time 1 days.
The mark [14] stands for this setting: control: nitrogen-containing compound without the glutaraldehyde, time 2 days.
The mark [15] stands for this setting: control: nitrogen-containing compound without the glutaraldehyde, time 6 days.
Where [16] appears, read: control: nitrogen-containing compound without the glutaraldehyde, time 7 days.
[17] abbreviates: control: nitrogen-containing compound without the glutaraldehyde, time 9 days.
The mark [18] stands for this setting: control: nitrogen-containing compound without the glutaraldehyde, time 13 days.
Where [19] appears, read: control: nitrogen-containing compound without the glutaraldehyde, time 20 days.

Read-outs that look alike come from different tables or passages of the source.

As to `OO` [H2O2], in the data set with bacteria, the microbial growth result is on record as “no growth”.
Consider `O=CCCCC=O` [Glutaraldehyde, glutaraldehyde], for which the “Growth / No Growth” value is recorded as “−” in the data set on bacterial inoculum [1] (1 ppm G, time 0 days); “−” in the data set on bacterial inoculum [1] (1 ppm G, time 1 days); “−” with bacterial inoculum [1] (1 ppm G, time 2 days); “−” in the data set with bacterial inoculum [1] (1 ppm G, time 3 days); “−” with bacterial inoculum [1] (1 ppm G, time 7 days); “+” with bacterial inoculum [1] (1 ppm G, time 9 days). Besides, the “Growth / No Growth” value in the data set with bacterial inoculum [1] (1 ppm G, time 14 days) is “+”; in the data set with bacterial inoculum [1] (10 ppm G, time 0 days), “−”; in the data set on bacterial inoculum [1] (10 ppm G, time 1 days) it was “−”; in the data set with bacterial inoculum [1] (10 ppm G, time 2 days), “−”; in the data set on bacterial inoculum [1] (10 ppm G, time 3 days), “−”; with bacterial inoculum [1] (10 ppm G, time 7 days) it was “−”. Further, the “Growth / No Growth” value is “−” with bacterial inoculum [1] (10 ppm G, time 9 days); “−” in the data set on bacterial inoculum [1] (10 ppm G, time 14 days); “−” with bacterial inoculum [1] (100 ppm G, time 0 days); “−” in the data set on bacterial inoculum [1] (100 ppm G, time 1 days); “−” in the data set with bacterial inoculum [1] (100 ppm G, time 2 days); “−” in the data set with bacterial inoculum [1] (100 ppm G, time 3 days). The “Growth / No Growth” value in the data set on bacterial inoculum [1] (100 ppm G, time 7 days) is given as “−”; in the data set with bacterial inoculum [1] (100 ppm G, time 9 days), “−”; in the data set on bacterial inoculum [1] (100 ppm G, time 14 days) it was “−”. This molecule also yielded an LOEC in data set [2] of 25 mg/L. This molecule also came in with an NOEC in data set [2] of 13 mg/L.
For the molecule `Nc1ccccc1` [aniline, Aniline], the “toxicity of the nitrogen-containing compound to microbial growth” value (“toxicity” for short) in the data set on bacterial inoculum [3] is “excessively toxic”. Moreover, the “Growth / No Growth” value with bacterial inoculum [3] (setting [4]), in the data set with bacterial inoculum [3] (setting [5]), in the data set on bacterial inoculum [3] (setting [6]), in the data set with bacterial inoculum [3] (setting [7]), in the data set with bacterial inoculum [3] (setting [8]) and with bacterial inoculum [3] (setting [9]) was “−” each time. The “Growth / No Growth” value in the data set with bacterial inoculum [3] (setting [10]), in the data set on bacterial inoculum [3] (setting [11]), in the data set on bacterial inoculum [3] (setting [12]), in the data set with bacterial inoculum [3] (setting [13]), in the data set on bacterial inoculum [3] (setting [14]) and in the data set on bacterial inoculum [3] (setting [15]) was “−” throughout. Also, the “Growth / No Growth” value in the data set with bacterial inoculum [3] (setting [16]), in the data set on bacterial inoculum [3] (setting [17]), with bacterial inoculum [3] (setting [18]) and in the data set on bacterial inoculum [3] (setting [19]) was “−” in each case.
For the molecule `OCCNCCO` [DEA, Diethanolamine], in the data set with bacterial inoculum [3], the “toxicity” value is given as “not excessively toxic”. Further, the “Growth / No Growth” value with bacterial inoculum [3] (setting [4]) is “−”; with bacterial inoculum [3] (setting [5]) it was “+”; with bacterial inoculum [3] (setting [6]) it was “+”; in the data set with bacterial inoculum [3] (setting [7]), “+”; in the data set on bacterial inoculum [3] (setting [8]), “+”; with bacterial inoculum [3] (setting [9]), “+”. Also, the “Growth / No Growth” value was “+” with bacterial inoculum [3] (setting [10]); “+” in the data set with bacterial inoculum [3] (setting [11]); “−” in the data set with bacterial inoculum [3] (setting [12]); “−” in the data set on bacterial inoculum [3] (setting [13]); “−” in the data set with bacterial inoculum [3] (setting [14]); “+” in the data set with bacterial inoculum [3] (setting [15]). For the same molecule, the “Growth / No Growth” value is recorded as “+” in the data set with bacterial inoculum [3] (setting [16]), “+” with bacterial inoculum [3] (setting [17]), “+” in the data set on bacterial inoculum [3] (setting [18]) and “−” in the data set with bacterial inoculum [3] (setting [19]). The “neutralizing 10 ppm of glutaraldehyde” value in the data set on bacterial inoculum [3] is given as “effective”.
As to `CCNCC` [diethylamine, Diethylamine], the “toxicity” value with bacterial inoculum [3] was “not excessively toxic”. For the same molecule, the “Growth / No Growth” value in the data set on bacterial inoculum [3] (setting [4]) is on record as “−”; with bacterial inoculum [3] (setting [5]) it was “−”; with bacterial inoculum [3] (setting [6]), “−”; with bacterial inoculum [3] (setting [7]) it was “+”; in the data set with bacterial inoculum [3] (setting [8]), “+”; with bacterial inoculum [3] (setting [9]), “+”. Also, the “Growth / No Growth” value is given as “+” in the data set on bacterial inoculum [3] (setting [10]); “+” with bacterial inoculum [3] (setting [11]); “−” in the data set with bacterial inoculum [3] (setting [12]); “−” with bacterial inoculum [3] (setting [13]); “−” with bacterial inoculum [3] (setting [14]); “+” in the data set with bacterial inoculum [3] (setting [15]). For the same molecule, the “Growth / No Growth” value in the data set with bacterial inoculum [3] (setting [16]), in the data set with bacterial inoculum [3] (setting [17]), in the data set on bacterial inoculum [3] (setting [18]) and in the data set on bacterial inoculum [3] (setting [19]) was “+” each time. The “neutralizing 10 ppm of glutaraldehyde” value with bacterial inoculum [3] is listed as “effective”.
Consider `NCCO` [MEA, monoethanolamine], for which the “toxicity” value in the data set with bacterial inoculum [3] was “not excessively toxic”. Also, the “Growth / No Growth” value with bacterial inoculum [3] (setting [4]) is listed as “−”; with bacterial inoculum [3] (setting [5]), “−”; in the data set on bacterial inoculum [3] (setting [6]), “−”; in the data set with bacterial inoculum [3] (setting [7]), “+”; in the data set with bacterial inoculum [3] (setting [8]), “+”; in the data set with bacterial inoculum [3] (setting [9]) it was “+”. Besides, the “Growth / No Growth” value is reported as “+” in the data set on bacterial inoculum [3] (setting [10]); “+” with bacterial inoculum [3] (setting [11]); “−” with bacterial inoculum [3] (setting [12]); “−” in the data set on bacterial inoculum [3] (setting [13]); “−” in the data set with bacterial inoculum [3] (setting [14]); “−” with bacterial inoculum [3] (setting [15]). Moreover, the “Growth / No Growth” value in the data set with bacterial inoculum [3] (setting [16]), in the data set on bacterial inoculum [3] (setting [17]), with bacterial inoculum [3] (setting [18]) and in the data set on bacterial inoculum [3] (setting [19]) was “+” in each case. Moreover, in the data set with bacterial inoculum [3], the “neutralizing 10 ppm of glutaraldehyde” value is “effective”. Moreover, the LOEC in data set [2] is on record as 1700 mg/L. Also, the NOEC in data set [2] turned out to be 1000 mg/L.
With `Cl.N` [NH4Cl], in the data set on bacteria, the microbial growth entry is “no growth”.
